Test results as given in patent US6608111B1, “Method for treating or preventing prostatic conditions” (Southern Illinois University Office of Research, …, priority 1998, dated 2003).
“Also recorded” adds a separate entry of the source.

Tests used:
Assay type in all cases: in vivo, rat
[1] = system: male and female Wistar rats; assay: Experiment 2: chronic treatment of male and female rats, 5-6 weeks; details: for Food intake: n = 5; for testosterone: compared to the vehicle
Method: Twenty-five male and 25 female Wistar rats, 7-8 weeks of age, were randomly assigned to groups of five animals, respectively, for treatment with vehicle only (V), estradiol (E), (±)-Z-BDDA, (+)-Z-BDDA, or (−)-Z-BDDA. Each animal in group V received a daily 0.1 cc injection of a 10% ethanol-90% olive oil solution; the other treatments received their respective compound as a daily 0.1 cc injection, e.g., 2.5 μg of compound/g of body weight, in a 10% ethanol-90% olive oil solution. A temperature of 21° C. and an artificial 12-h light-dark cycle were maintained in the animal room. All animals were maintained on standard chow in powdered form, the males for five weeks and the females for six weeks, then sacrificed after an overnight fast under i.p. pentobarbital anesthesia (50 mg/kg). Animal weight and food intake were measured weekly during the study and subsequent FER values were determined. During sacrifice, blood was collected (via cardiac puncture) for glucose, luteinizing hormone, prolactin and testosterone measurements. The amounts of luteinizing hormone, prolactin and testosterone were measured to help elucidate the target tissue of the respective compounds in male and female rats. Immediately following sacrifice the fat pads and reproductive organs were removed and weighed.
(§1) Experiments 1 and 2 employed a randomized design. All data were analyzed by one-way analysis of variance (ANOVA,)and post-hoc comparisons were made with Tukey pairwise comparisons test. Significance was confirmed at p≦0.05 (SYSTAT 7.0, SPSS INC., 1997), and all values are reported as means±standard error of the mean.

male Sprague-Dawley rats = assay: Example 4: effects on prostate and testis of male rats, 6 weeks; details: for testis histology: Leydig cells / testis histology: spermatogenesis: FIGS. 5a-f; for Prostate Weight as % Body Weight / Seminal Vesicle Weight as % Body Weight / Testis Weight as % Body Weight / Body Weight (g): 0.1 ug/g of body weight once a day, mean ± SEM; for Body Weight (g): n = 10
Method: Sixty male Sprague-Dawley rats, 7-8 weeks of age, were randomly assigned to groups of ten animals. Each group was randomly assigned to one of six treatments: Vehicle control (C), Estradiol-17β(E), (−)-Z-BDDA, (+)-Z-BDDA, (−)-HAA, and (+)-HAA. The compounds were all administered at a dose of 0.1 μg/g of body weight in 0.1 cc once a day for 6 weeks. The estrogenic compounds were dissolved in 10% ethanol and 90% olive oil vehicle. A temperature of 21° C. and an artificial 12 h light-dark cycle were maintained in the animal room. All animals were maintained on standard chow in powdered form for six weeks, and then sacrificed after an overnight fast under i.p. pentobarbitol anesthesia (50 mg/kg). Animal weight was measured weekly during the study. During sacrifice, blood was collected via cardiac puncture. Immediately following sacrifice, the fat pads, livers, pituitaries, testes, seminal vesicles, and prostate were removed and weighed, and snap frozen in liquid nitrogen. Prostates and one testis from 2-3 animals in each treatment group were fixed in 10% formalin for histological examination. These tissues were fixed overnight, blocked in paraffin, sectioned at 4 μm, stained with Hematoxylin and Eodsin, cover slipped, and examined microscopically. Quantitative results were subjected to an analysis of variance and means separated by a Tukey's Test (SYSTAT, Chicago, Ill.).

[2] = system: male and female Sprague-Dawley rats; assay: Experiment 1: chronic treatment of male and female rats, 4 weeks; details: mean ± SEM; for Food intake: 2.5 ug/g of body weight daily injection; for Food intake / Food intake (g): n = 5
Method: Twenty-five male and 25 female Sprague-Dawley rats, 9-10 weeks of age, were randomly assigned to groups of five animals, respectively, as a control group (no treatment) (C), for treatment with vehicle only (V), estradiol (E), (±)-Z-BDDA, or (+)-Z-BDDA. Each animal in group V received a daily 0.1 cc injection of a 10% ethanol-90% olive oil solution; the other treatments received their respective compound as a daily 0.1 cc injection, e.g., 2.5 μg of compound/g of body weight, in a 10% ethanol-90% olive oil solution. A temperature of 21° C. and an artificial 12-h light-dark cycle was maintained in the animal room. All animals were maintained on standard chow in powdered form for four weeks, then sacrificed after an overnight fast under i.p. pentobarbital anesthesia (50 mg/kg). Animal weight and food intake were measured weekly during the study, and the subsequent food-efficiency ratio [FER(g of weight change/g of food intake)] was determined. During sacrifice, blood was collected (via cardiac puncture) for cholesterol measurements. Immediately following sacrifice the fat pads and reproductive organs were removed and weighed.
as §1

[3] = female rats (uterus), 2.5 ug/g of body weight daily, six weeks, mean ± SEM
[4] = female rats, 2.5 ug/g of body weight daily, six weeks, mean ± SEM
[5] = male rats (testis), 2.5 ug/g of body weight daily, five weeks, mean ± SEM
[6] = male rats, 2.5 ug/g of body weight daily, five weeks, mean ± SEM
[7] = female rats (uterus), 2.5 ug/g of body weight daily
[8] = female rats, 2.5 ug/g of body weight daily, g of weight change/g of food intake
[9] = female rats, 2.5 ug/g of body weight daily
[10] = male rats (testis), 2.5 ug/g of body weight daily
[11] = male rats, 2.5 ug/g of body weight daily

C[C@]12CCC3c4ccc(O)cc4CCC3[C@@H]1CCC2O (single isomer, unassigned; (+)) [estradiol, (+)-17β-estradiol, reference compound]
Uterus/testis weight (g) [1, 3]: 4.83 ± 1.30^1 g
Blood glucose [1, 4]: 100.80 ± 10.22 mg/dL
FER (food efficiency ratio) [1, 4]: 0.039 ± 0.004
Food intake [1, 4]: 699.6 ± 33.7 g
Uterus/testis weight (g) [1, 5]: 0.74 ± 0.04^1 g
testosterone ([1]; male rats, 2.5 μg/g daily): significant (p<0.05) testosterone suppression
Blood glucose [1, 6]: 108.00 ± 10.90 mg/dL
FER (food efficiency ratio) [1, 6]: 0.00 ± 0.01^1
Prostate weight [1, 6]: 0.06 ± 0.02 g
Food intake [1, 6]: 590.4 ± 47.7 g
body weight (percent weight change) ([1]; male rats, both experiments (FIGS. 2 and 3), 2.5 μg/g daily): dramatic reduction in body weight
testis histology: Leydig cells (male Sprague-Dawley rats; 0.1 μg/g daily): small
testis histology: spermatogenesis (male Sprague-Dawley rats; 0.1 μg/g daily): halted at round (Golgi phase) spermatids
Prostate Weight as % Body Weight (male Sprague-Dawley rats): 0.05 ± 0.00^1 % Body Weight
Seminal Vesicle Weight as % Body Weight (male Sprague-Dawley rats): 0.02 ± 0.00^1 % Body Weight
Testis Weight as % Body Weight (male Sprague-Dawley rats): 0.49 ± 0.13^1,4 % Body Weight
Body Weight (g) (male Sprague-Dawley rats): 207.2 ± 4.6^1 g
Uterus/testis weight [2, 7]: 1.58 ± 0.15 g
Food intake ([2]; female rats): 371.6 ± 17.8 g
FER (food efficiency ratio) [2, 8]: 0.035 ± 0.011
Cholesterol (mg/dl) [2, 9]: 44.9 ± 15.8^1 mg/dl
Visceral fat (g) [2, 9]: 0.8 ± 0.1^1 g
Uterus/testis weight (g) [2, 10]: 0.94 ± 0.13^1,2 g
Cholesterol (mg/dl) [2, 11]: 51.5 ± 9.5^1,2 mg/dl
FER (food efficiency ratio) [2, 11]: −0.057 ± 0.012^1,2
Prostate weight (g) [2, 11]: 0.09 ± 0.01^1,2 g
Visceral fat (g) [2, 11]: 4.2 ± 0.4^2 g
Food intake (g) [2, 11]: 298.2 ± 18.8^1 g

CC[C@H]1c2ccc3cc(O)ccc3c2CC[C@@]1(C)C(=O)O [(+)-Z-BDDA, (+)-Z-bisdehydrodoisynolic acid]
Uterus/testis weight (g) [1, 3]: 4.02 ± 0.91^1 g
Blood glucose [1, 4]: 89.60 ± 6.15 mg/dL
FER (food efficiency ratio) [1, 4]: 0.026 ± 0.008^1
Food intake [1, 4]: 693.6 ± 72.3 g
Uterus/testis weight (g) [1, 5]: 0.61 ± 0.02^1 g
testosterone ([1]; male rats, 2.5 μg/g daily): significant (p<0.05) testosterone suppression
Blood glucose (mg/dl) [1, 6]: 94.00 ± 10.18^1 mg/dl
FER (food efficiency ratio) [1, 6]: −0.02 ± 0.01^1
Prostate weight (g) [1, 6]: 0.02 ± 0.00^1 g
Food intake [1, 6]: 676.0 ± 33.2 g
prostate histology (alveoli) (male Sprague-Dawley rats; 0.1 μg/g daily, FIGS. 4a-f): normal alveoli; also recorded: tubules and alveoli being slightly smaller
testis histology: Leydig cells (male Sprague-Dawley rats; 0.1 μg/g daily): normal
testis histology: spermatogenesis (male Sprague-Dawley rats; 0.1 μg/g daily): normal
gross testes weights unadjusted for bodyweight (male Sprague-Dawley rats; 0.1 μg/g daily, data not shown): lighter (P<0.05) than those in control rats
Prostate Weight as % Body Weight (male Sprague-Dawley rats): 0.05 ± 0.01^1 % Body Weight
Seminal Vesicle Weight as % Body Weight (male Sprague-Dawley rats): 0.23 ± 0.12^2 % Body Weight
Testis Weight as % Body Weight (male Sprague-Dawley rats): 0.98 ± 0.15 % Body Weight
Body Weight (g) (male Sprague-Dawley rats): 234.8 ± 10.1^1,2 g
Uterus/testis weight (g) [2, 7]: 2.57 ± 0.79^1,2 g
Food intake ([2]; female rats): 315.2 ± 18.4 g
FER (food efficiency ratio) [2, 8]: 0.045 ± 0.017^4
Cholesterol (mg/dl) [2, 9]: 35.1 ± 8.6^1 mg/dl
Visceral fat (g) [2, 9]: 2.1 ± 0.3^1,3 g
Uterus/testis weight (g) [2, 10]: 0.84 ± 0.06^1,2 g
Cholesterol (mg/dl) [2, 11]: 24.6 ± 2.2^1,2,3 mg/dl
FER (food efficiency ratio) [2, 11]: −0.174 ± 0.027^1,2,3,4
Prostate weight (g) [2, 11]: 0.13 ± 0.04^1,2,3 g
Visceral fat (g) [2, 11]: 5.1 ± 0.2^2 g
Food intake (g) [2, 11]: 326.0 ± 9.5^1 g
